For assay [1], the target named is T1, Protein tyrosine phosphatase 1B (PTP1B) (Homo sapiens, UniProt P18031).
T1 sequence (P18031 1-435): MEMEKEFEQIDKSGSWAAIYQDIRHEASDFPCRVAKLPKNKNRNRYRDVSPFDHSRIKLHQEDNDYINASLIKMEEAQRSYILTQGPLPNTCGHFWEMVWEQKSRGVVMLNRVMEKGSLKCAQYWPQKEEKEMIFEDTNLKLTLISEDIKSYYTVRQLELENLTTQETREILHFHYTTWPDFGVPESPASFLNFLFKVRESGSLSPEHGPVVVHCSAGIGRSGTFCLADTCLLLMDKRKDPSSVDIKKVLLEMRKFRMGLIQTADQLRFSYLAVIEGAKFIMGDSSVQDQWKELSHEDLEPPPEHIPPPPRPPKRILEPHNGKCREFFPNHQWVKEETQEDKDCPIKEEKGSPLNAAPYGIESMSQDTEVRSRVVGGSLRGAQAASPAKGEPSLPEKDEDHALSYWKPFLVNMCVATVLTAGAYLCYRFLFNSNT
The experiment in a line: PTP1B inhibitory kinetics (Lineweaver-Burk, Dixon and secondary plots). Type of assay: biochemical. The conditions noted are these: for Type of inhibition: Lineweaver-Burk plots, substrate 0.437-1.75 mM pNPP. As for the experimental part: (§1) Protein tyrosine phosphatase 1B inhibitory assay was performed with slight modification to the previously reported method (Song et al., [2017]). Tris–HCl buffer (25 mM, pH 7.5) which contained 1 mM (ethylenediaminetetraacetic acid) EDTA, 1 mM dithiothreitol (DTT), and 2 mM β-mercaptoethanol was used as buffer solution, whereas p-nitrophenyl phosphate (pNPP), a substrate of PTP1B was utilized for enzyme activity measurement. Enzyme assay was started by mixing 10 μL of test compounds with 130 μL of Tris-HCl buffer solution in 96-well plate, then 20 μL of enzyme (EC 3.1.3.48, 1μg/mL), and finally 40 μL of substrate (4 mM pNPP) was added at 37°C for 10 min. During the substrate hydrolysis, pNPP was de-phosphorylated, giving product pNP, which was detected by Spectra Max M3 Multi-Mode Microplate reader (Molecular devices, USA) at a wavelength of 405 nm for 30 min. […] Kinetic parameters were determined by Line weaver-Burk and Dixon plots. Sigma Plot (SPCC Inc., Chicago, IL, USA) was utilized for data setting and calculation.
In order to study detailed kinetics of PTP1B, Michaelis-Menten equation (4) is applied, who's reciprocal is taken which transform to a new equation, Line weaver-Burk equation (5). Using this equation Line weaver-Burk plots were constructed, which were applied for the analysis of inhibitory kinetics of test compounds. Different inhibitor concentrations accompanied with varying substrate concentrations were used for determination of enzymes steady-state rates, subsequently kinetic parameters related to PTP1B inhibition were also determined. The values of inhibitory constants KI and KIS, when free enzyme binds with inhibitor (KI) or enzyme-substrate-complex interact with inhibitor (KIS) were obtained from secondary plots of the slopes and vertical intercept (1/V^appmax) vs. inhibitors concentration. The representative Equations (1–3) were used to acquire KI and KIS values (Chiari et al., [2011]).
For inhibition parameters, an assay was performed having different substrate concentrations (0.437–1.75 mM), and several dilutions of tested compounds.
The effects of different concentrations of the bioactive active compounds on the hydrolysis of p-nitrophenyl phosphate by PTP1B were studied. We assayed different concentrations (3.75, 7.5, 15, 30, 60, and 120 μM) of inhibitors (1-9) with the given enzyme and substrate. As a result, we observed a gradual decrease in enzyme activity (% activity) with increasing inhibitors concentrations as shown in Figure 2A. […] Plots of residual enzyme activity vs. enzyme concentration at different concentrations (0, 6.7, 13.5, and 27 μM) of compound 4 gave a family of lines which intersected on x-axis at 0 intercept. […] In order to explore the mechanistic behavior and kinetic features of the tested compounds, detailed kinetic study was performed. For this purpose the target enzyme was assayed in different concentrations of substrate (0.437, 0.875, 1.75 mM), in the presence of several dilutions of the respective compound, been graphically presented in double reciprocal plots (Linweaver-Burk and Dixon plots). Representatively, here we have explained compound 4 in detail, the Lineweaver-Burk plots of (4) produced a family of straight lines which intersected on the left side of y-axis and above the x-axis as shown in Figure 3A. The inhibitory constants (KI and KIS) were obtained by plotting the slopes and intercepts vs. different concentrations of compound 4 (Figure 3A, insets). […] In kinetic plots the abscissa [I] is the concentration of compound, where the coordinate1/V represents reciprocal of enzyme activity.

In assay [2] the target is T1, Protein tyrosine phosphatase 1B (PTP1B). The experiment in a line: PTP1B inhibitory assay (hydrolysis of p-nitrophenyl phosphate, 405 nm). Type of assay: biochemical. The conditions noted are these: for IC50: pNPP substrate, 37°C, experiments repeated three times. As for the experimental part:
as §1

The mark [3] stands for this setting: from Dixon plots, read-out: Ki (inhibition constant).

Each structure is given as a SMILES string. Read-outs that look alike come from different tables or passages of the source.

The term Ki denotes a measure of affinity in units of concentration, obtained from inhibition or displacement. The term IC50 denotes the concentration that gives 50% inhibition. Low readings indicate greater potency in that assay, high ones weaker potency in that assay. On to `COc1c(O)cc2oc(-c3ccc(O)cc3)c(OC)c(=O)c2c1O` [Compound 3, viscosine], for which the Type of inhibition entry in assay [1] is given as “Mixed”. The inhibition constant (Ki) in assay [1] (setting [3]) amounted to 6.9 µM. Further, the IC50 in assay [2] came out at 18.7 ± 0.6 µM.
The matching figures for `COc1cc2oc(-c3ccc(O)cc3)c(OC)c(=O)c2c(O)c1OC` [Compound 1, penduletin]: “Mixed”, 27.3 µM and 57.9 ± 0.6 µM.
The matching figures for `CC1OC(OCC2OC(Oc3c(-c4ccc(O)cc4)oc4cc(O)cc(O)c4c3=O)C(O)C(O)C2O)C(O)C(O)C1O` (centres unmarked) [Compound 8, Kaempferol 3-O-rutinoside]: “Non-competitive”, 13 µM and 20.5 ± 0.8 µM.
For `COc1c(O)cc2oc(-c3ccc(O)c(CCC(C)CO)c3)c(OC)c(=O)c2c1O` (centres unmarked) [Compound 7, 5,7,4′-trihydroxy-3′-(3-hydroxymethylbutyl)-3,6-dimethoxyflavone], in assay [1], the Type of inhibition result is reported as “Mixed”. Moreover, the Ki in assay [1] (setting [3]) was found to be 14.3 µM. For the same compound, the half-inhibitory concentration (IC50) in assay [2] came out at 41.8 ± 0.5 µM.
`C=C(C)C(O)Cc1cc(-c2oc3cc(O)c(OC)c(O)c3c(=O)c2OC)ccc1OC` (centres unmarked) [Compound 5, 5,7-dihydroxy-3′-(2-hydroxy-3-methylbutenyl)-3,6,4′-trimethoxy-flavone]: in assay [1], the Type of inhibition entry is recorded as “Mixed”. Besides, the inhibition constant (Ki) in assay [1] (setting [3]) is 10.1 µM. This compound displayed an IC50 in assay [2] of 28.4 ± 0.9 µM.
The matching figures for `COc1cc(-c2oc3cc(O)cc(O)c3c(=O)c2OC2OC(COC3OC(C)C(O)C(O)C3O)C(O)C(O)C2O)ccc1O` (centres unmarked) [Compound 9, Isorhamnetin3-O-robinobioside]: “Non-competitive”, 26.4 µM and 42.9 ± 0.4 µM.
The corresponding values for `COc1ccc(-c2oc3cc(O)c(OC)c(O)c3c(=O)c2OC)cc1CCC(C)CO` (centres unmarked) [Compound 6] are “Mixed”, 22.8 µM and 56 ± 0.3 µM.
As for `COc1ccc(-c2oc3cc(O)c(OC)c(O)c3c(=O)c2OC)cc1CC=C(C)C` [Compound 4, 5,7-dihydroxy-3,6-dimethoxy-2-(4-methoxy-3-(3-methylbut-2-enyl)phenyl)-4H-chromen-4-one], in assay [1], the Type of inhibition entry is reported as “mixed type I”. Further, the Ki was 4.6 µM in assay [1] (setting [3]) and 4.1 ± 0.2 µM in assay [1] (secondary plot of slopes vs. inhibitor concentration, Equation 2, read-out: KI (inhibitor binding to free enzyme)). Besides, the Reversibility of inhibition entry in assay [1] (residual enzyme activity vs. enzyme concentration at 0, 6.7, 13.5, 27 μM inhibitor) is “reversible”. Besides, in assay [1] (secondary plot of intercepts vs. inhibitor concentration, Equation 3), the “KIS (inhibitor binding to enzyme-substrate complex)” value turned out to be 26.4 ± 0.4 µM. In addition, the “fold more potency than mother skeleton 1” value in assay [2] (IC50 comparison with compound 1) is on record as 6 fold. Moreover, the “fold more potency than mother skeleton 2” value in assay [2] (IC50 comparison with compound 2) worked out at 2.5 fold. The IC50 in assay [2] is 13.5 ± 0.3 µM.

These data come from paper PMC5839231, “Isolation and Characterization of Protein Tyrosine Phosphatase 1B (PTP1B) Inhibitory Polyphenolic Compounds From Dodonaea viscosa and Their Kinetic Analysis” (Frontiers in Chemistry, 2018).
